≈ marks a conversion by molar mass, not a printed value. Like-named read-outs stand apart in the source and are kept apart here.
How the values were obtained:
Mtb H37Rv strain = test: Resazurin (Alamar Blue) MIC assay against replicating Mtb; type: cell-based, Mycobacterium tuberculosis; details: lowest concentration inhibiting ≥90% growth, initial hits, quinoxaline di-N-oxides, positive controls; for MIC: Mycobacterium tuberculosis, H37RV
Mtb = tested on: Mtb; parameters: method as in PMID 18502817; details: cited from earlier work
in vitro [1] = details: African green monkey
mammalian cell = details: cited from earlier work
[2] = mouse, microsomes, pH 7.4
Method: The test agent was incubated in duplicate with mouse liver microsomes at 37°C. The reaction contained microsomal protein in 100 mM K3PO4, 2 mM NADPH, and 3 mM MgCl2 at pH 7.4. A control was run for each test agent omitting NADPH to detect NADPH-free degradation. At t = 0 and 60 min, an aliquot was removed from each experimental and control reaction and mixed with an equal volume of ice-cold Stop Solution (methanol containing propranolol as an internal standard). Stopped reactions were incubated at least ten min at -20°C, and an additional volume of water was added. The samples were centrifuged to remove precipitated protein, and the supernatants were analyzed by LC/MS/MS to quantitate the remaining parent. Data were reported as % remaining by dividing by the time zero concentration value.

physchem = type: physicochemical; details: 37 °C, pH 7.4, aqueous buffer, kinetic from dmso stock
Method: Serial dilutions of the test agent were prepared in DMSO at 100x the final concentration. Test article solutions were diluted 100-fold into pH 7.4 phosphate-buffer saline (PBS) in a 96-well plate and mixed. After 2 h at 37°C, the presence of precipitate was detected by turbidity (absorbance at 540 nm). An absorbance value of greater than ‘mean + 3x standard deviation of the blank’ (after subtracting the background) was indicative of turbidity. For brightly colored compounds, a visual inspection of the plate was performed to verify the solubility limit determined by UV absorbance. The solubility limit was reported as the highest experimental concentration with no evidence of turbidity.

in vitro [3] = details: human, Caco-2
Caco-2 cell permeability = details: human
clinical strain 692 = test: AlamarBlue MIC (absorbance), strain panel: 692; type: cell-based; details: Mycobacterium tuberculosis, pan-susceptible
[4] = in vitro cultured Mtb H37Rv, read-out: Mtb MIC (H37Rv)
[5] = 3.2 μg/mL (1.3X MIC), 6 h, vs DMSO

| Compound | MIC (Mtb H37Rv strain; [4]) [µg/mL] | CC50 at 72 h (in vitro [1]) [µg/mL] | % Compound remaining after 1h in the absence of NADPH [2] [%] | % Compound remaining after 1h in the presence of NADPH [2] [%] | solubility kinetic at 2 h (physchem) [µM] | Papp A→B at 2 h, 10 μM (in vitro [3]) [×10⁻⁶ cm/s] | Papp B→A at 2 h, 10 μM (in vitro [3]) [×10⁻⁶ cm/s] | further results |
| --- | --- | --- | --- | --- | --- | --- | --- | --- |
| CC(=O)c1c(C)[n+]([O-])c2ccccc2[n+]1[O-] [SRI1, 1-(3-methyl-1,4-dioxy-quinoxalin-2-yl)-ethanone] | 2.5 (≈ 11.5 µM) | > 40 |  |  |  |  |  | MIC previously identified (Mtb): 3.13 µg/mL (≈ 14.3 µM); Mammalian cell cytotoxicity previously reported (mammalian cell): no appreciable mammalian cell cytotoxicity |
| CCCCC(=O)c1c(C)[n+]([O-])c2cc(Cl)c(Cl)cc2[n+]1[O-] [SRI54] | 2.5 (≈ 7.59 µM) | 15 (≈ 45.6 µM) | 79.1 | 0 | 15.6 (≈ 5.14 µg/mL) | 0.66 | 0.1 | Genes down-regulated at minimum twofold versus control (Mtb (H37Rv); [5]): 184 genes; Genes up-regulated at least twofold versus control (Mtb (H37Rv); [5]): 131 genes; DNA repair genes down-regulated at least twofold (Mtb (H37Rv); 3.2 μg/mL, 6 h): 2/59; DNA repair genes up-regulated at least twofold (Mtb (H37Rv); 3.2 μg/mL, 6 h): 12/59; Methylcitrate cycle genes (prpC, prpD, icl1) induced more than fourfold versus control (Mtb (H37Rv); 3.2 μg/mL, 6 h): 3/13; Avg. fold induction over four replicates, hypothetical protein ORF01494 (Mtb (H37Rv); ORF01494, treated vs DMSO): 11.22; Avg. fold induction over four replicates, Rv0560c (Mtb (H37Rv); gene Rv0560c, treated vs DMSO): 38.01; Avg. fold induction over four replicates, Rv1130 (Mtb (H37Rv); gene Rv1130, treated vs DMSO): 8.92; Avg. fold induction over four replicates, Rv3074 (Mtb (H37Rv); gene Rv3074, treated vs DMSO): 8.59; Avg. fold induction over four replicates, gltA1 (Mtb (H37Rv); gene gltA1 (Rv1131), treated vs DMSO): 15.16; Hierarchical clustering of transcriptional response (Mtb (H37Rv); top 100 most up- and down-regulated genes vs deposited Mtb transcriptional data): clustered most closely to the fatty acid biosynthesis inhibitor CD117; efflux ratio at 2 h, 10 μM (Caco-2 cell permeability): 0.15 |
| Cc1c(C(=O)C2CC2)[n+]([O-])c2cc(Cl)c(Cl)cc2[n+]1[O-] [SRI58] |  | > 40 | 110 | 63.6 | 125 (≈ 39.1 µg/mL) | 2.3 | 0.57 | MIC (Mtb H37Rv strain; read-out: Mtb MIC (H37Rv), in vitro cultured Mtb H37Rv): 1.2 µg/mL (≈ 3.83 µM); Mtb MIC (H37Rv) (Mtb H37Rv strain; in vitro cultured Mtb H37Rv): 1.25 µg/mL; efflux ratio at 2 h, 10 μM (in vitro [3]): 0.25 |
| CCCCC(=O)c1c(C)[n+]([O-])c2ccc([N+](=O)[O-])cc2[n+]1[O-] [SRI50] | 0.32 (≈ 1.05 µM) | 3.4 (≈ 11.1 µM) | 77.5 | 0.06 | 125 (≈ 38.2 µg/mL) |  |  | MIC (clinical strain 692): 0.16 µg/mL (≈ 0.524 µM) |
